Data reported in article PMC13198257, “An aerosolized dual-action autotaxin inhibitor-PPARγ agonist for the treatment of pulmonary fibrosis” (Cell Reports Medicine, 2026).
“Also recorded” adds a separate entry of the source.

Key:
[1] = Mouse metabolic clearance and half-life in vitro
[2] = target: T1, ATX (Homo sapiens, UniProt Q13822); test: Amplex Red assay: ATX inhibitory activity in vitro; format: biochemical; conditions: in vitro; for IC50: Amplex Red assay
T1 construct: purchased Sino Biological 11308-H07H
Protocol: (§1) ATX inhibitory activity in vitro of examined compounds was assessed with the Amplex Red assay,[32]^,[35]^,[36] as recently published in detail.[37] The assay was done in Amplex Red Assay buffer (Tris 50 mM, CaCl2 5 mM, pH 8). Briefly, 50 μL of increasing concentrations of each compound were placed in separate wells of a black 96-well plate. […] 50 μL of the LPC-containing assay buffer (200 μM) were added to the wells and incubated for 30 min at 37°C to allow the enzyme to initially interact with its substrate. 50 μL of the detection mix (Amplex Red 200 μM, choline oxidase 0.4 U/mL, horseradish peroxidase 4 U/mL) were added to the plate wells. Fluorescence was measured in a Tecan M200 Fluorimeter using excitation at 530 nm and reading at 590 nm, every 5 min for 30 min. The velocity of the reaction and the remaining ATX activity were calculated at the linear phase of the reaction. Dose-response inhibition graphs were plotted with GraphPad Software.

[3] = system: choline oxidase and horseradish peroxidase; test: Interference with the 2nd and 3rd reaction of the Amplex Red assay; format: biochemical
Protocol: as §1
Figure S3. Kinetic analysis of ATX inhibition. Related to Figures 3 and 4
(B) Kinetics for the second (oxidation of choline catalysed by choline oxidase) and third reaction (the conversion of the
Amplex substrate to the fluorescent resorufin catalysed by horseradish peroxidase, HRP) of the Amplex Red Lyso-
phospholipase D assay for representative compounds (TGZ, 4, 5 and EL244). The first reaction includes the conversion of
LPC to LPA catalysed by ATX.
Kinetic graphs are indicative of three technical replicates. […]

[4] = target: hERG (Homo sapiens, UniProt Q12809); test: hERG inhibition; format: biochemical
[5] = AMP membrane permeability; format: in vitro ADME; conditions: 10 μΜ

Sequence of hERG (Q12809 whole entry): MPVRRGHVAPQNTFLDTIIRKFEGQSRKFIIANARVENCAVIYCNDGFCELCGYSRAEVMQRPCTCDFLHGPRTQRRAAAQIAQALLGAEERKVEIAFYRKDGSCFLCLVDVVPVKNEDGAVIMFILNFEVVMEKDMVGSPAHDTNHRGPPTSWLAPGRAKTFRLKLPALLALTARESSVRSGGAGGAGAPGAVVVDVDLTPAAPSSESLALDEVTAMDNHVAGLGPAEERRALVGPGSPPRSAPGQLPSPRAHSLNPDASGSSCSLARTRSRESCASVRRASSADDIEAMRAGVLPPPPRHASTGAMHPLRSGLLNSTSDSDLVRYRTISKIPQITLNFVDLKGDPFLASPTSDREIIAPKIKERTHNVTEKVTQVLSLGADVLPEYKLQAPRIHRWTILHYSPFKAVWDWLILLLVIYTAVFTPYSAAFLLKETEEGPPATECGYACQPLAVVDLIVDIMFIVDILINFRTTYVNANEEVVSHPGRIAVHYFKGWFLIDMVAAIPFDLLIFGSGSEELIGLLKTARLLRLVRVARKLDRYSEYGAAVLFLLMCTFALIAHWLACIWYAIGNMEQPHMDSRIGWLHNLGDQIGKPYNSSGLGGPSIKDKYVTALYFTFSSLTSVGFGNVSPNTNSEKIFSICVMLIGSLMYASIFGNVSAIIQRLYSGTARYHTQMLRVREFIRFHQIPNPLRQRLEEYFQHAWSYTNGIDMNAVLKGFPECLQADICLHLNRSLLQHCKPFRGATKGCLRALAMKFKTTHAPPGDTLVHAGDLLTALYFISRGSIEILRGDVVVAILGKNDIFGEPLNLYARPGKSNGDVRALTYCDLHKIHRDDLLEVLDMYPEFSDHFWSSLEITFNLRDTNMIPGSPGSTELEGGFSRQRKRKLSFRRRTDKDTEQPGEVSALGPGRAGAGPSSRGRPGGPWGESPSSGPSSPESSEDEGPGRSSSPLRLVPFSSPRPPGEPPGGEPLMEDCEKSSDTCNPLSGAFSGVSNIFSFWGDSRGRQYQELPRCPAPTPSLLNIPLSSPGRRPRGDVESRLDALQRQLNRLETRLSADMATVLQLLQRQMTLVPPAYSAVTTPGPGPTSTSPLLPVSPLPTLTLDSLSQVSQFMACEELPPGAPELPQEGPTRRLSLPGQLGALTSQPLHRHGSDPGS

O=C1NC(=O)C(Cc2ccc(OCCC3CCN(C(=O)OCc4cc(Cl)cc(Cl)c4)CC3)cc2)S1 (centres unmarked) [EL244, 3,5-dichlorobenzyl 4-(2-(4-((2,4-dioxothiazolidin-5-yl)methyl)phenoxy)ethyl)piperidine-1-carboxylate]
half-life at 0.1 μM [1]: 61 min
microsomal CLint at 0.1 μM [1]: 114 µL/min/mg
IC50 [2]: 50 nM
ATX inhibitory effect, fold better than 5 [2]: 5 fold
ATX inhibitory effect, fold better than GLPG1690 [2]: 3 fold
ATX inhibitory effect, fold better than TGZ [2]: 10 fold
Interference on the 2nd and 3rd steps of the Amplex Red assay [3]: not involved at all in the second and third reaction
IC50 [4]: > 25000 nM
inhibition at 25 μM ([4]; human, 25 μΜ): ~12%
AMP [5]: 8e-07 cm/s

O=C1NC(=O)C(Cc2ccc(OCCN3CCN(C(=O)OCc4cc(Cl)cc(Cl)c4)CC3)cc2)S1 (centres unmarked) [Compound 5, 3,5-dichlorobenzyl4-(2-(4-((2,4-dioxothiazolidin-5-yl)methyl)phenoxy)ethyl)piperazine-1-carboxylate]
half-life at 0.1 μM [1]: 21 min
IC50 [2]: 290 nM
Interference on the 2nd and 3rd steps of the Amplex Red assay [3]: Minimal interference; also recorded: not involved at all in the second and third reaction
AMP [5]: 3.7e-06 cm/s
